In the oligonucleotide strings, read from the 5' end, every base follows the letter of its sugar. An asterisk marks phosphorothioate; unmarked linkages are phosphodiester. Other units and linkages are bracketed, terminal groups are in braces. A string of capitals states the bases alone. e = 2'-O-(2-methoxyethyl) (MOE); [5mC] = 5-methylcytosine; d = 2'-deoxy (DNA)
Key:
mir-21 miRNA = assay: pGL3-mir-21 sensor luciferase assay in HeLa cells; format: cell-based, human; details: Table 50, pGL3-mir-21 sensor-expressing HeLa cells, normalized to pRL-CMV
Text: In order to assess the ability of miRNAs to bind predicted miRNA binding sites and regulate the expression of the luciferase reporter, in some embodiments, expression systems based on the pGL3-Control (Promega Corp., Madison Wis.) reporter vector and comprising either a mir-15a, mir-21, or a mir-23b miRNA binding site were developed and used in transient transfections of HeLa cells to determine whether the endogenous mir-15a, mir-21, or mir-23b miRNAs, respectively, could repress luciferase reporter gene expression.
The pGL3-mir-21 sensor plasmid was created by cloning the sequence ([…]; SEQ ID NO: 335), representing a sequence complementary to the mir-21 miRNA, into the Xba site of the pGL3-Control plasmid, placing the potential miRNA-binding site in the 3′UTR of the luciferase reporter. This reporter plasmid was used to transfect HeLa cells and it was observed that the endogenous mir-21 miRNA was able to inhibit luciferase expression from the pGL3-mir-21 sensor plasmid. Thus, to further evaluate the ability of the mir-21 miRNA to bind this target site encoded by the pGL3-mir-21 sensor plasmid, and to assess the ability of oligomeric compounds to interfere with mir-21-mediated silencing, pGL3-mir-21 sensor-expressing HeLa cells were treated with varying concentrations (10 nM or 50 nM) of the following oligomeric compounds: ISIS Number 327917 (SEQ ID NO: 335), a phosphorothioate uniform 2′-MOE oligomeric compound; ISIS Number 338697 ([…]; herein incorporated as SEQ ID NO: 524), a uniform 2′-MOE oligomeric compound targeting the mir-21 pri-miRNA molecule; and ISIS Number 328415 (SEQ ID NO: 524), a 2′-MOE 5-10-5 gapmer oligomeric compound targeting the mir-21 pri-miRNA. The uniform 2′-MOE phosphorothioate oligomeric compound ISIS Number 327901 (SEQ ID NO: 319) targeting an unrelated miRNA (mir-143) was used as a negative control. The data are the average of three trials and are presented in Table 44 as percent untreated control (luciferase plasmid only, not treated with oligomeric compound) luciferase expression, normalized to pRL-CMV levels.
In one embodiment, the oligomeric compounds ISIS Number 327917 (SEQ ID NO: 335), the phosphorothioate uniform 2′-MOE targeting mature mir-21; ISIS Number 358768 (SEQ ID NO: 918), the uniform 2′-MOE targeting the mir-21 pri-miRNA which stimulated the largest increase in pri-miRNA expression levels by real time quantitative RT-PCR; and ISIS Number 345382 (SEQ ID NO: 335), the 5-10-7 phosphorothioate 2′-MOE gapmer targeting mature mir-21 were selected for dose response studies in HeLa cells using the luciferase reporter system described in Example 27. ISIS Number 342683 (SEQ ID NO: 790), representing the scrambled nucleotide sequence of an unrelated PTP1B antisense oligonucleotide, was used as a negative control. HeLa cells expressing the pGL3-mir-21 sensor plasmid (described in Example 27) were treated with 1.9, 5.5, 16.7, and 50 nM of these oligomeric compounds, to assess the ability of oligomeric compounds to interfere with endogenous mir-21-mediated silencing of the pGL3-mir-21 sensor plasmid. The data are presented in Table 50 as percent untreated control (luciferase plasmid only, not treated with oligomeric compound) luciferase expression, normalized to pRL-CMV levels.

mir-21 pri-miRNA = mir-21 pri-miRNA expression in HeLa cells (real-time RT-PCR); format: cell-based, human; details: HeLa cells, 100 nM, real-time RT-PCR
Description: In one embodiment, the expression of mir-21 (noted to be expressed at high levels in HeLa cells) was assessed in cells treated with oligomeric compounds. Using the transfection methods previously described, HeLa cells were treated with 100 nM of the uniform 2′-MOE oligomeric compound ISIS Number 327917 (SEQ ID NO: 335) targeting the mir-21 mature miRNA. Total RNA was isolated by lysing cells in 1 mL TRIZOL™ (Invitrogen) using the manufacturer's recommended protocols. […] Real-time RT-PCR analysis was also performed on HeLa cells treated with ISIS 327917 using a primer/probe set specific for the mir-21 pri-miRNA molecule [forward primer=ISIS 339332 ([…]; herein incorporated as SEQ ID NO.: 911), reverse primer-ISIS 339333 (TCGACTGGTGTTGCCATGA; herein incorporated as SEQ ID NO.: 912), and probe=ISIS 339334 ([…]; herein incorporated as SEQ ID NO.: 913)]. Total RNA was quantified using RiboGreen™ RNA quantification reagent (Molecular Probes, Inc. Eugene, Oreg.), expression levels observed for the target were normalized to 5.8S rRNA, and values were expressed relative to an untreated control (UTC).
Using the real-time RT-PCR methods, the expression levels of the mir-21 pri-miRNA were compared in HeLa cells treated with this nested series of uniform 2′-MOE oligomeric compounds, targeting and spanning the entire length of the mir-21 pri-miRNA. ISIS Number 358768 (SEQ ID NO: 918) targets a region flanking the predicted 5′ Drosha cleavage site in the mir-21 pri-miRNA. ISIS Number 358777 (SEQ ID NO: 927) targets a region spanning the 3′ Drosha cleavage site in the mir-21 pri-miRNA. ISIS 358779 (SEQ ID NO: 929) targets a region flanking the predicted 3′ Drosha cleavage site in the mir-21 pri-miRNA. Additionally, oligomeric compounds ISIS 327917 (SEQ ID NO: 335), a uniform 2′-MOE compound targeting the mature mir-21 miRNA, and ISIS 345382 ([…]; SEQ ID NO: 335), a 5-10-7 phosphorothioate 2′-MOE gapmer targeting mir-21, were tested for comparison. Oligomeric compound ISIS 327863 ([…]; herein incorporated as SEQ ID NO: 936), a phosphorothioate 5-10-52′-MOE gapmer, was used as scrambled control. […] Total RNA was isolated by lysing cells in 1 mL TRIZOL™ (Invitrogen) using the manufacturer's recommended protocols. real-time RT-PCR analysis was performed using the primer/probe set specific for the mir-21 pri-miRNA molecule [forward primer=ISIS 339332 (SEQ ID NO.: 911), reverse primer-ISIS 339333 (SEQ ID NO.: 912), and probe=ISIS 339334 (SEQ ID NO.: 913)]. Total RNA was quantified using RiboGreen™ RNA quantification reagent (Molecular Probes, Inc. Eugene, Oreg.), expression levels observed for each target were normalized to 5.8S rRNA, and values were expressed relative to the untreated control (UTC). Effects on expression of the mir-21 pri-miRNA molecule resulting from treatment of HeLa cells with these uniform 2′-MOE oligomeric compounds is expressed as a percentage of RNA levels in untreated control cells.

IL-12 mRNA = IL-12 mRNA in LPS-activated primary murine macrophages; format: cell-based, mouse; details: LPS, average of 3 treatments
IL-6 mRNA = IL-6 mRNA in LPS-activated primary murine macrophages; format: cell-based, mouse; details: average of 3 treatments
Description: To investigate the role of miRNAs in the immune response, oligomeric compounds of the present invention targeting miRNAs were tested for their effects upon lipopolysaccharide (LPS)-activated primary murine macrophages. Macrophages participate in the immune response, for example, in the recognition and phagocytosis of microorganisms, including bacteria. Interferon-gamma (IFN-gamma) released by helper T cells is one type of signal required for macrophage activation, and LPS can serve as an additional stimulus. LPS is a component of the gram-negative bacterial cell wall and acts as an agonist for toll-like receptor 4 (TLR4), the primary LPS receptor expressed by macrophages. The proinflammatory cytokines interleukin-12 (IL-12) and interleukin-6 (IL-6) are induced by LPS treatment of macrophages, thus the expression of the mRNAs encoding these cytokines was used to evaluate the response of macrophages to LPS following treatment with oligomeric compounds targeting miRNAs.
Macrophages were isolated as follows. Female C57B1/6 mice (Charles River Laboratories, Wilmington, Mass.) were injected intraperitoneally with 1 ml 3% thioglycollate broth (Sigma-Aldrich, St. Louis, Mo.), and peritoneal macrophage cells were isolated by peritoneal lavage 4 days later. The cells were plated in 96-well plates at 40,000 cells/well for one hour in serum-free RPMI adjusted to contain 10 mM HEPES (Invitrogen Life Technologies, Carlsbad, Calif.), allowed to adhere, then non-adherent cells were washed away and the media was replaced with RPMI containing 10 mM HEPES, 10% FBS and penicillin/streptomycin (“complete” RPMI; Invitrogen Life Technologies, Carlsbad, Calif.).
Oligomeric compounds were introduced into the cells using the non-liposomal transfection reagent FuGENE 6 Transfection Reagent (Roche Diagnostics Corp., Indianapolis, Ind.). Oligomeric compound was mixed with FuGENE 6 in 1 mL of serum-free RPMI to achieve a concentration of 10 μL FuGENE per 1000 nM oligomeric compound. The oligomeric compound/FuGENE complex was allowed to form at room temperature for 20 minutes. This mixture was diluted to the desired concentration of oligomeric compound by the addition of the appropriate volume of complete RPMI. The final ratio of FuGENE 6 to oligomeric compound was 1 μL of FuGENE 6 per 100 nM oligomeric compound. A volume of 100 μL of oligomeric compound/FuGENE/RPMI was added to each well of the 96-well plate in which the macrophages were cultured. Each oligomeric compound treatment was repeated in triplicate.
Following oligomeric compound treatment, cells were stimultated with LPS. Cells were cultured in the presence of the transfection complex for approximately 24 to 28 hours at 37° C. and 5% CO2, after which the medium containing the transfection complex was removed from the cells, and complete RPMI containing 100 ng/mL LPS (Sigma-Aldrich Corp., St. Louis, Mo.) was added to the cells for a period of approximately 24 hours. Control samples included (1) cells receiving no oligomeric compound, stimulated with LPS and (2) cells receiving neither oligomeric compound nor LPS treatment.
In another embodiment, following oligomeric compound treatment, cells were first activated by IFN-gamma, to amplify the response to LPS. Cells were cultured in the presence of the transfection complex for approximately 24 hours at 37° C. and 5% CO2, at which point the medium containing the transfection complex was removed from the cells, and complete RPMI containing 100 ng/mL recombinant mouse IFN-gamma (R&D Systems, Minneapolis, Minn.) was added to the cells. After the 4 hour treatment with INF-gamma, cells were treated with 100 ng/mL LPS for approximately 24 hours. Control samples included (1) cells receiving no oligomeric compound, stimulated with LPS and (2) cells receiving neither oligomeric compound nor LPS treatment. […]

Q: Which “luciferase expression % UTC” value (mir-21 miRNA; 1.9 nM) does the source give for “358768 (eA*eG*eG*eT*eG*eG*eT*eA*e[5mC]*eA*eG*e[5mC]*e[5mC]*eA*eT*eG*eG*eA*eG*eA) [compound 358768]” here?
A: 103 % UTC

Q: And the “luciferase expression % UTC” value (mir-21 miRNA; 5.5 nM)?
A: 163 % UTC

Q: What about the “luciferase expression % UTC” value (mir-21 miRNA; 16.7 nM) of the same substance?
A: 146 % UTC

Q: What about the “luciferase expression % UTC” value (mir-21 miRNA; 50 nM) of the same substance?
A: 118 % UTC

Q: And the “mir-21 pri-miRNA expression % UTC” value (mir-21 pri-miRNA)?
A: 987 % UTC

Q: With “342683 (antisense CCTTCCCTGAAGGTTCCTCCTT; scrambled control, further chemistry not given here) [compound 342683]” as the substance, how does the “luciferase expression % UTC” value (mir-21 miRNA; 1.9 nM) read?
A: 127 % UTC

Q: What about the “luciferase expression % UTC” value (mir-21 miRNA; 5.5 nM) of the same substance?
A: 171 % UTC

Q: What about the “luciferase expression % UTC” value (mir-21 miRNA; 16.7 nM) of the same substance?
A: 104 % UTC

Q: What about the “luciferase expression % UTC” value (mir-21 miRNA; 50 nM) of the same substance?
A: 108 % UTC

Q: What about the “IL-12 mRNA expression, % UTC” value (IL-12 mRNA; 75 nM, +IFN) of the same substance?
A: 92 % UTC

Q: What about the “IL-12 mRNA expression, % UTC” value (IL-12 mRNA; 75 nM, −IFN) of the same substance?
A: 121 % UTC

Q: And the “IL-12 mRNA expression, % UTC” value (IL-12 mRNA; 150 nM, +IFN)?
A: 76 % UTC

Q: What about the “IL-12 mRNA expression, % UTC” value (IL-12 mRNA; 150 nM, −IFN) of the same substance?
A: 165 % UTC

Q: And the “IL-12 mRNA expression, % UTC” value (IL-12 mRNA; 300 nM, +IFN)?
A: 65 % UTC

Q: What about the “IL-12 mRNA expression, % UTC” value (IL-12 mRNA; 300 nM, −IFN) of the same substance?
A: 147 % UTC

Q: And the “IL-12 mRNA expression, % UTC” value (IL-12 mRNA; 600 nM, +IFN)?
A: 64 % UTC

Q: And the “IL-12 mRNA expression, % UTC” value (IL-12 mRNA; 600 nM, −IFN)?
A: 130 % UTC

Q: And the “IL-6 mRNA expression, % UTC” value (IL-6 mRNA; 75 nM, +IFN)?
A: 115 % UTC

Q: What about the “IL-6 mRNA expression, % UTC” value (IL-6 mRNA; 75 nM, −IFN) of the same substance?
A: 135 % UTC

Q: And the “IL-6 mRNA expression, % UTC” value (IL-6 mRNA; 150 nM, +IFN)?
A: 86 % UTC

Q: What about the “IL-6 mRNA expression, % UTC” value (IL-6 mRNA; 150 nM, −IFN) of the same substance?
A: 161 % UTC

Q: And the “IL-6 mRNA expression, % UTC” value (IL-6 mRNA; 300 nM, +IFN)?
A: 110 % UTC

Q: What about the “IL-6 mRNA expression, % UTC” value (IL-6 mRNA; 300 nM, −IFN) of the same substance?
A: 156 % UTC

Q: And the “IL-6 mRNA expression, % UTC” value (IL-6 mRNA; 600 nM, +IFN)?
A: 149 % UTC

Q: And the “IL-6 mRNA expression, % UTC” value (IL-6 mRNA; 600 nM, −IFN)?
A: 311 % UTC

Q: Which results are given for “345382 (TCAACATCAGTCTGATAAGCTA; sugars from the 5' end e5 d10 e7, all phosphorothioate, methylation of C not given here) [compound 345382]”?
A: luciferase expression % UTC (mir-21 miRNA; 1.9 nM): 101 % UTC; luciferase expression % UTC (mir-21 miRNA; 5.5 nM): 135 % UTC; luciferase expression % UTC (mir-21 miRNA; 16.7 nM): 117 % UTC; luciferase expression % UTC (mir-21 miRNA; 50 nM): 95 % UTC; mir-21 pri-miRNA expression % UTC (mir-21 pri-miRNA): 119 % UTC
